Measurements as given in ChEMBL document CHEMBL1201862, “PubChem BioAssay data set” (2004).
Active and inactive are the calls of the source.

Key:
HEK293 [1] = test: cells; type: functional, cell-based; conditions: Homo sapiens
HEK293 [2] = test: cells; type: functional, cell-based; conditions: Homo sapiens; remark: listed apart in the source
HEK293 [3] = test: cells; type: functional, cell-based; conditions: Homo sapiens; remark: listed apart in the source
[4] = molecular target: Nucleotide-binding oligomerization domain-containing protein 2 (Homo sapiens, UniProt Q9HC29); test: NOD2 signaling inhibitors, cell-based, luminescence, uHTS, HEK293 (AID 1566); type: functional
HEK293 [5] = test: NOD2 signaling inhibitors in MDP-stimulated cells, cell-based, uHTS, luminescence (AID 2001); type: functional; conditions: Homo sapiens
HEK293 [6] = test: NOD1 signaling inhibitors, primary screen, cell-based, luminescence, uHTS (AID 1578); type: functional; conditions: Homo sapiens
[7] = Luminescence-based cell-based high throughput dose response assay to identify activators of the DAF-12 from the parasite S. stercoralis (ssDAF-12).; type: functional
[8] = molecular target: T1, Microphthalmia-associated transcription factor (Homo sapiens, UniProt O75030); test: TRPM1 promoter luciferase signal decrease, dose response, MITF inhibitor project, cell-based, SK-MEL-5, cherry-picked, set 3 (AID 493073); type: functional
T1 sequence (O75030 whole entry): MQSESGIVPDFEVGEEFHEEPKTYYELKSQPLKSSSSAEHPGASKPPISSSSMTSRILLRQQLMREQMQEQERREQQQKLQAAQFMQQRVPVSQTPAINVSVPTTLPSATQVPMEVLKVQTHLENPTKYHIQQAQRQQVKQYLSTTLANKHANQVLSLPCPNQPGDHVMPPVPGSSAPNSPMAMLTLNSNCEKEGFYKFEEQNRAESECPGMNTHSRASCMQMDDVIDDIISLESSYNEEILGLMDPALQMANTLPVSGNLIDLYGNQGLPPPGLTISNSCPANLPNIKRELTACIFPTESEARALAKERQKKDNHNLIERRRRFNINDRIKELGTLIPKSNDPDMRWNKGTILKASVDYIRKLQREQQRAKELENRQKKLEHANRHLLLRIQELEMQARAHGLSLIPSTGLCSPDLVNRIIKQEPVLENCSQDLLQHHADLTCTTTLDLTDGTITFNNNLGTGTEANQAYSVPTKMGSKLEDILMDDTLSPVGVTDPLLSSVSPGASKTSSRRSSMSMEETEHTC

[9] = molecular target: Neurotensin receptor type 1 (Homo sapiens, UniProt P30989); type: functional;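 note: Image-based confirmatory dose-response assay measuring agonist activity at NTR1; NTR1-expressing U2OS osteosarcoma cells imaged for beta-arrestin GFP spot formation; agonist potency where compounds increase beta-arrestin recruitment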
[10] = Fluorescence-based cell-based high throughput dose response assay for inhibitors of the interaction of nucleotide-binding oligomerization domain containing 2 (NOD2) and the receptor-interacting serine-threonine kinase 2 (RIPK2).; type: functional, Homo sapiens; conditions: Homo sapiens
Cytochrome P450 3A4 [11] = molecular target: T2, Cytochrome P450 3A4 (Homo sapiens, UniProt P08684); conditions: Potency
T2 sequence (P08684 whole entry): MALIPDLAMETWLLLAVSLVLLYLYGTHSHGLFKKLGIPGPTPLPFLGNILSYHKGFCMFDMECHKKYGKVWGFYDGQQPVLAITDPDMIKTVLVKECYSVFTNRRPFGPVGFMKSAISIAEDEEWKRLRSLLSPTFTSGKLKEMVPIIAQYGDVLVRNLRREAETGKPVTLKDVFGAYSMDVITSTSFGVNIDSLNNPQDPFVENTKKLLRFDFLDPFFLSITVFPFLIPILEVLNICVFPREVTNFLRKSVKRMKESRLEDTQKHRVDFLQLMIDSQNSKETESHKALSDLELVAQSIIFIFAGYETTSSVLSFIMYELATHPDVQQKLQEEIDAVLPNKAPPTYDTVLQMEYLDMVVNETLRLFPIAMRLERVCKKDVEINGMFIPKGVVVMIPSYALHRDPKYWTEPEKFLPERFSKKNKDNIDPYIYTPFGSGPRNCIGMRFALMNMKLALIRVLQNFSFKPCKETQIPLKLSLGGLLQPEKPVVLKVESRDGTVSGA

Large T antigen = Large T antigen (Simian virus 40, UniProt P03070); type: functional, Betapolyomavirus macacae;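 note: Confirmatory-stage PubChem screen for compounds that inhibit SV40 T antigen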
Chain of Large T antigen (P03070 whole entry): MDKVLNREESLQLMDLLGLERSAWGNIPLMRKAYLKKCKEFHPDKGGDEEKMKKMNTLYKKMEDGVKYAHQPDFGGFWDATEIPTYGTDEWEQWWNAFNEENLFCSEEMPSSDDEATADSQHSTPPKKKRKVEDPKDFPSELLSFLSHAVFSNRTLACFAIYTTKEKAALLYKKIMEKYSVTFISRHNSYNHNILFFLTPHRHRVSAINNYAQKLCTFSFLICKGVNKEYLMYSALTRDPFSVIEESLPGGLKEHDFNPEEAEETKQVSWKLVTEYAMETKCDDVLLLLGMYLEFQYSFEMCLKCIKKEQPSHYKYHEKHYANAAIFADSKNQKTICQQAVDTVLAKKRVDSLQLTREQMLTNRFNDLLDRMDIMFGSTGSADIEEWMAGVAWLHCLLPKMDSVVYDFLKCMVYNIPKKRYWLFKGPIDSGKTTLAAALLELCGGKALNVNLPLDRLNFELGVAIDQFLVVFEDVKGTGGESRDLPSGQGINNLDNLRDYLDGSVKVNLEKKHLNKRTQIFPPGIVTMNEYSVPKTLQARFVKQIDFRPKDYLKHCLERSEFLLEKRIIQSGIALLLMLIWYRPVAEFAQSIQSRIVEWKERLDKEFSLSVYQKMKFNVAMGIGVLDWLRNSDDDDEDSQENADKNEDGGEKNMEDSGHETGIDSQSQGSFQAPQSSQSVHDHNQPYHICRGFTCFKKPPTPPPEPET

[12] = molecular target: T3, Alkaline phosphatase, tissue-nonspecific isozyme (Homo sapiens, UniProt P05186)
T3 sequence (P05186 whole entry): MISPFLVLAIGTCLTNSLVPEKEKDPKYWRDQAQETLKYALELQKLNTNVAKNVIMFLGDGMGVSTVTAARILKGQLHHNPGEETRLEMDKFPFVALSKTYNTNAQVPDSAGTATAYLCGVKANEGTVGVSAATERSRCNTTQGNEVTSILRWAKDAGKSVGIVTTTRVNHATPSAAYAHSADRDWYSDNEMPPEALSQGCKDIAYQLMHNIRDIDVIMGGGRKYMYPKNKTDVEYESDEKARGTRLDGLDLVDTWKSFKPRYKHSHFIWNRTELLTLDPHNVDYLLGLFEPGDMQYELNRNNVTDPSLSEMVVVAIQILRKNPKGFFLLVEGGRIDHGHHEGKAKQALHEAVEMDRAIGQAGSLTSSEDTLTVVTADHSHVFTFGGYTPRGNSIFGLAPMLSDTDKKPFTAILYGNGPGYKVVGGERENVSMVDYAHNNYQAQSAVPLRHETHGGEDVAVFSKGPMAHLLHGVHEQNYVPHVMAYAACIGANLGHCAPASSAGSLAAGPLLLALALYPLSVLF

Cytochrome P450 3A4 [13] = molecular target: T2, Cytochrome P450 3A4
Cytochrome P450 2D6 = Cytochrome P450 2D6 (Homo sapiens, UniProt P10635);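 note: CYP2D6 member of a cytochrome P450 panel assay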
[14] = inhibitors of intracellular T. cruzi replication, confirmation, NIH3T3 host cells, beta-gal luminescence (AID 2044); type: functional, cell-based;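 note: intracellular parasites grown in NIH/3T3 mouse fibroblasts as host cells; luminescent beta-galactosidase reporter signal from transgenic T. cruzi replicating inside host cells; inhibitors lower the luminescence signal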
Bcl-2-like protein 10 = Bcl-2-like protein 10 (Homo sapiens, UniProt Q9HD36); test: displacers of TR3 peptide from Bcl-B, primary screen, selectivity assay for Bfl-1 inhibitor project, biochemical, fluorescence polarization, FITC-TR3 peptide (AID 748);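 note: fluorescence polarization from a fluorescein-labelled TR3 peptide binding purified Bcl-B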
[15] = cytotoxicity toward NIH3T3 fibroblasts, dose response, counter-screen, cell-based, ATP luminescence, mouse fibroblasts (AID 2010); type: functional;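 note: cells exposed to compound for about 90 hours before reading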
[16] = molecular target: G-protein coupled receptor 55 (Homo sapiens, UniProt Q9Y2T6); test: GPR55 agonists via beta-arrestin recruitment, primary screen, imaging, U2OS cells, beta-arrestin-GFP redistribution (AID 1961); type: functional
Coagulation factor XII = molecular target: T4, Coagulation factor XII (Homo sapiens, UniProt P00748); test: Factor XIIa Dose Response Confirmation from Single Well HTS. [Related pubchem assays (depositor defined):AID701]; type: functional
T4 sequence (P00748 whole entry): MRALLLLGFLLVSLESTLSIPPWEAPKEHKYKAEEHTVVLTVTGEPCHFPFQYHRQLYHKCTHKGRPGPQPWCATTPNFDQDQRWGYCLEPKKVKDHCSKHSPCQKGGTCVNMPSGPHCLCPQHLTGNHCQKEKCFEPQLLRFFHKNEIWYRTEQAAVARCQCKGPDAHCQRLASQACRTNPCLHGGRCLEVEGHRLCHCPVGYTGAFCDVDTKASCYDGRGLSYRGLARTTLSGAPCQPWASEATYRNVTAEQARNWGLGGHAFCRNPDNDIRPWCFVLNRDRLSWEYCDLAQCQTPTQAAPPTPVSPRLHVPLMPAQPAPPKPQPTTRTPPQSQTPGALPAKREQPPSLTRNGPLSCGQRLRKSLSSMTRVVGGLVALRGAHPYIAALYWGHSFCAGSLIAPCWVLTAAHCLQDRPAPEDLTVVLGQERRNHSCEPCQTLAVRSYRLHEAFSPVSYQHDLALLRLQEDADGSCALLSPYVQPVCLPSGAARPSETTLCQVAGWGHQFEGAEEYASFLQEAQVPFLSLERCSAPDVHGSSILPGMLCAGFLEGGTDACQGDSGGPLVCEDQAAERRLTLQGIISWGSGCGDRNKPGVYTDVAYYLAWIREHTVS

HeLa = test: HeLa cell cytotoxicity, dose response, cytotoxicity control, 24 h, cherry-picked samples (AID 504726); type: functional, cell-based; conditions: Homo sapiens;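 note: potency for cytotoxicity as loss of luminescence signal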
Protein Rev = Protein Rev (Human immunodeficiency virus type 1 group M subtype B (isolate HXB2)(HIV-1), UniProt P04618); test: inhibitors of Rev binding to RRE RNA, dose response, biochemical, fluorescence polarization, HIV-1 (AID 434976); parameters: species or system Human immunodeficiency virus 1
Chain of Protein Rev (P04618 whole entry): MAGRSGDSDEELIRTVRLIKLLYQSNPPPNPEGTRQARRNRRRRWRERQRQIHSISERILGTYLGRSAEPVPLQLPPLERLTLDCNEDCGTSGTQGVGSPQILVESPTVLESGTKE

[17] = molecular target: Female germline-specific tumor suppressor gld-1 (Caenorhabditis elegans, UniProt Q17339); test: inhibitors of GLD-1 binding to TGE RNA, dose response, biochemical, fluorescence polarization, C. elegans (AID 2802);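 note: fluorescence polarization of labeled TGE RNA bound by purified gld-1 protein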
Chain of Female germline-specific tumor suppressor gld-1 (Q17339 whole entry): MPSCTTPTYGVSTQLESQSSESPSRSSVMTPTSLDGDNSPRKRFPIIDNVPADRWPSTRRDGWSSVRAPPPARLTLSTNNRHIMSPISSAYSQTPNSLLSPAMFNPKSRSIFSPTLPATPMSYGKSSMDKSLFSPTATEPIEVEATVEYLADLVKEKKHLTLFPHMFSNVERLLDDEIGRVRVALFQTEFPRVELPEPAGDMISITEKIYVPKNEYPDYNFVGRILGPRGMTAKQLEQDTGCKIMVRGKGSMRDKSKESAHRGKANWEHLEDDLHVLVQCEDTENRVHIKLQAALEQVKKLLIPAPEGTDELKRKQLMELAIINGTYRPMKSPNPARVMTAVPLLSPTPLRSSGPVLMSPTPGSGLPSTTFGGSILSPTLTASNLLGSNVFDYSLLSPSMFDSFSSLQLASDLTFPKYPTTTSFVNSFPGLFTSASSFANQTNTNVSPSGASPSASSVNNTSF

[18] = molecular target: Acyl-homoserine lactone acylase PvdQ (Pseudomonas aeruginosa (strain LESB58), UniProt Q9I194); test: P. aeruginosa PvdQ acylase inhibitors, dose response, biochemical, fluorescence, plate reader and imaging, cherry-picks (AID 493231)
[19] = molecular target: T5, Polyadenylate-binding protein 1 (Homo sapiens, UniProt P11940); test: PABP1 MLLE–PAM2 binding inhibitor potency, dose response, biochemical, fluorescence polarization, FITC-PAM2 peptide (AID 602259); type: functional; conditions: read-out: IC50_Mean
[20] = molecular target: T5, Polyadenylate-binding protein 1; test: PABP1 MLLE–PAM2 interaction inhibitors, dose response, miRNA deadenylation inhibitor project, biochemical, fluorescence polarization, Cy5-PAM2 peptide, secondary (AID 602260); type: functional; conditions: read-out: IC50_Mean
[21] = molecular target: T6, Voltage-gated N-type calcium channel alpha-1B subunit/Amyloid beta A4 precursor protein-binding family A member 1 (Homo sapiens, UniProt Q00975+Q02410); test: disruptors of Mint-PDZ/N-type channel peptide interaction – biochemical, HTRF, set 2, SAR follow-up (AID 434980); type: functional
T6 sequence (Q00975 whole entry): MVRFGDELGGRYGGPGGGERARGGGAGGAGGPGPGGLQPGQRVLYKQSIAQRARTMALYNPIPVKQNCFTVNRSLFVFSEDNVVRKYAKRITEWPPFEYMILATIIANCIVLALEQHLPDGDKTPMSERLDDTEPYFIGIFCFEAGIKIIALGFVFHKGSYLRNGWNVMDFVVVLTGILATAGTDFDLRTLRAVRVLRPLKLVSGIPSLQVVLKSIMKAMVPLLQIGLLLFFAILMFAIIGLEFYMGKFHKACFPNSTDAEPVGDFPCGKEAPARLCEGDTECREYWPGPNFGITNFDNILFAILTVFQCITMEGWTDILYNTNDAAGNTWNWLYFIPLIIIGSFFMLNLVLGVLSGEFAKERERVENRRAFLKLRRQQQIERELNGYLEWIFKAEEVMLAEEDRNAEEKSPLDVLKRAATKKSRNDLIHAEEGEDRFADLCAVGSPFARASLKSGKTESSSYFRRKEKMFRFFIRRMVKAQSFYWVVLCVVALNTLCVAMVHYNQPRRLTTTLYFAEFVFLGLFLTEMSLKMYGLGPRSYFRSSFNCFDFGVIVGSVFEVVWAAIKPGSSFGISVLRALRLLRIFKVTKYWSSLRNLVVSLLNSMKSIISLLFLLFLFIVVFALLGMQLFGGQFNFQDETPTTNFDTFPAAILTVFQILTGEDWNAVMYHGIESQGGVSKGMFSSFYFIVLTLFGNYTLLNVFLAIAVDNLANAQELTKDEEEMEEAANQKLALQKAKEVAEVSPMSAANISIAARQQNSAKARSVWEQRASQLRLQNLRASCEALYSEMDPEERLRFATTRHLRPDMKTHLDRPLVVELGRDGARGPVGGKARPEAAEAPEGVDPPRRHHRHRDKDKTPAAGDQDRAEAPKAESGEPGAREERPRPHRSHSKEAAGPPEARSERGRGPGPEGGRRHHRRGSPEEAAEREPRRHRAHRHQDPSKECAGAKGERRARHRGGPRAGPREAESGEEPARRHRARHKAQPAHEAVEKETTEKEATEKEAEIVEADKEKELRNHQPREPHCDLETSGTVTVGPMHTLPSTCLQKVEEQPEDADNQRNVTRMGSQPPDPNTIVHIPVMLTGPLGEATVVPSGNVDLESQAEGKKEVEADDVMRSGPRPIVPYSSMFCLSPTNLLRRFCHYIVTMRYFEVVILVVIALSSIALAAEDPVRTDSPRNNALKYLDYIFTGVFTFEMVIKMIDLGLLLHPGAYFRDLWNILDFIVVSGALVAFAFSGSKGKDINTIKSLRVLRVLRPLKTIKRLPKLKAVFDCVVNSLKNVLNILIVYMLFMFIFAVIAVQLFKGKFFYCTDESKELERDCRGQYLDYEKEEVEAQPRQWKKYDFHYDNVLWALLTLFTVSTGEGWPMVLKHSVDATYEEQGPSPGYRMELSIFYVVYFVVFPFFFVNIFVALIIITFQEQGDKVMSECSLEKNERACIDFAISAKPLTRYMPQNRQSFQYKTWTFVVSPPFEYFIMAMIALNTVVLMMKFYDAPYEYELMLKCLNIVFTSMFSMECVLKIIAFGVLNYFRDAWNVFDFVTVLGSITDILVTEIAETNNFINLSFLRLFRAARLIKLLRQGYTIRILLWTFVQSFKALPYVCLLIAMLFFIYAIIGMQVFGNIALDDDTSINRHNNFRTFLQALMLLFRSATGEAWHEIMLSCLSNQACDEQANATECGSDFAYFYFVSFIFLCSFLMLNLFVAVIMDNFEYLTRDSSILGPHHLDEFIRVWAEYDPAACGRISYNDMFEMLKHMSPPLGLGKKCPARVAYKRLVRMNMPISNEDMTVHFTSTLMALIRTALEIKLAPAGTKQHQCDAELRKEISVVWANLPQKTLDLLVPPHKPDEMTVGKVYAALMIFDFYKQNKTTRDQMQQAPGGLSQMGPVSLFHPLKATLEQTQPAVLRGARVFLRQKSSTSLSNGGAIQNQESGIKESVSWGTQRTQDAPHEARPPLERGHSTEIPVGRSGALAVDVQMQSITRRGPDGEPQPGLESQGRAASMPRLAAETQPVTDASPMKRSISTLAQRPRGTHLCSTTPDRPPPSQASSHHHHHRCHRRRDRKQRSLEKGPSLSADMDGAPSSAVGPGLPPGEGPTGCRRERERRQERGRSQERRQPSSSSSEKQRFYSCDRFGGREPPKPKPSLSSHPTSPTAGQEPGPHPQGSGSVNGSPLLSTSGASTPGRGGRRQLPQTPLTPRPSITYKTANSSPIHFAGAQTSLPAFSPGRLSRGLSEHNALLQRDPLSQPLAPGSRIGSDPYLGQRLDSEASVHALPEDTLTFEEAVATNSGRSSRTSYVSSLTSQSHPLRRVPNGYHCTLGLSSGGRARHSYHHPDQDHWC
T6 sequence (Q02410 whole entry): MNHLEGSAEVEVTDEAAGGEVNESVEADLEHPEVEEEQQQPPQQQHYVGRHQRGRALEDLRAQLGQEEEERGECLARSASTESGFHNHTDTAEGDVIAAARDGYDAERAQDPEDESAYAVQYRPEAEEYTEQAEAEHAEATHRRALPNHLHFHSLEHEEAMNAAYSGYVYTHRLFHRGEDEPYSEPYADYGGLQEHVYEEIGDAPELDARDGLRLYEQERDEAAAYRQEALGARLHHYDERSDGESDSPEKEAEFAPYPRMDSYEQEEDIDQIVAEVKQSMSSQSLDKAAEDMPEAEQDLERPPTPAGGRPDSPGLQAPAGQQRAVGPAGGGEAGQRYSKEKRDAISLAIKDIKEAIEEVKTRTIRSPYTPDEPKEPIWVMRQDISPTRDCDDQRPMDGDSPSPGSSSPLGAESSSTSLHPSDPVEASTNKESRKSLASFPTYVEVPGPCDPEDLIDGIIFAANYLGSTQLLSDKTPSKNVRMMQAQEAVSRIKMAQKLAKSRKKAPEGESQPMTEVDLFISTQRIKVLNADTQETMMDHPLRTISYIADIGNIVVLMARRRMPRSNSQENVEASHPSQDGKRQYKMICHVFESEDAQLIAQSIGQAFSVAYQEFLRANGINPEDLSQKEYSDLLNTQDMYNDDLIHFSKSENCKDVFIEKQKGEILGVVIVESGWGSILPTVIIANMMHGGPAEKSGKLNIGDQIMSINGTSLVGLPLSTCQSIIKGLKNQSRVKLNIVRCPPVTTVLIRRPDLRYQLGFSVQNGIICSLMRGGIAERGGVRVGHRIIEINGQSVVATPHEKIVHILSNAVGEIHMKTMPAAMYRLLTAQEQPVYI

Hexokinase = Hexokinase (Trypanosoma brucei, UniProt Q38C41); test: Confirmation assay for inhibitors of Trypanosoma brucei hexokinase 1-Analogue-first series. [Related pubchem assays (depositor defined):AID1430, AID1632, AID2516, AID2560, AID2579, AID2600, AID449725, AID492951]; type: functional
[22] = molecular target: FAD-linked sulfhydryl oxidase ALR (Homo sapiens, UniProt P55789); test: inhibitors of human ALR sulfhydryl oxidase, dose response, biochemical, H2O2 detection, luminescence, cherry-pick (AID 493248)
[23] = molecular target: T7, Carboxy-terminal domain RNA polymerase II polypeptide A small phosphatase 1 (Homo sapiens, UniProt Q9GZU7); test: inhibitors of CTDSP1, concentration-response testing, biochemical assay, absorbance-based, actives from ultra-high-throughput screening (AID 540297); type: functional
T7 sequence (Q9GZU7 whole entry): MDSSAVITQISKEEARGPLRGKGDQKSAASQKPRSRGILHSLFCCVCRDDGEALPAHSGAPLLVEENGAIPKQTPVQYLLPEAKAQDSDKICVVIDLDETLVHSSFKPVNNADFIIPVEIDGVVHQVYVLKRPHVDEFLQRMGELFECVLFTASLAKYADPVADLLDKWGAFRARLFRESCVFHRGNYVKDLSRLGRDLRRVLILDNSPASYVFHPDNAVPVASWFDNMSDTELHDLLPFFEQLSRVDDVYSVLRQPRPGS

[24] = molecular target: Induced myeloid leukemia cell differentiation protein Mcl-1 (Homo sapiens, UniProt Q07820); type: functional
[25] = molecular target: T6, Voltage-gated N-type calcium channel alpha-1B subunit/Amyloid beta A4 precursor protein-binding family A member 1; type: protein assay
[26] = molecular target: T6, Voltage-gated N-type calcium channel alpha-1B subunit/Amyloid beta A4 precursor protein-binding family A member 1; type: protein assay; remark: listed apart in the source

## Cc1nc(N2CCN(C(=O)COc3ccccc3)CC2)c2c(C)c(C)sc2n1
HEK293 [1]
  IC50: 5.32 µM (active)
HEK293 [2]
  IC50: > 20 µM (inactive)
HEK293 [3]
  IC50: 11.9 µM (active)
[4]
  EC50: 7.34 µM (active)
HEK293 [5]
  IC50: 5.95 µM (active)
HEK293 [6]
  EC50: 5.68 µM (active)

## Cc1cc(N2CCOCC2)ccc1/C=C\[N+](=O)[O-]
[7]
  IC50: > 67.5 µM (inactive)
[8]
  AC50: 22.5 µM (active)
[9]
  EC50: 22.4 µM (inactive)
[10]
  IC50: 4.34 µM (active)

## COC(=O)c1ccc(C23CC4(C2)[C@H](CN(C)[C@@H]4c2ccccc2)C3c2ccc(Cl)nc2)cc1 (stereo partly specified)
Cytochrome P450 3A4 [11]
  AC50: 20 µM (inconclusive)

## CC(C)CC1=NN2C(=N)/C(=C\c3coc4ccccc4c3=O)C(=O)N=C2S1
Large T antigen
  IC50: 18.3 µM (active)

## Cc1cc([N+](=O)[O-])nn1CC(=O)NN=C(S)Nc1ccc(F)cc1
[12]
  EC50: 55.5 µM (not active)
Cytochrome P450 3A4 [13]
  AC50: 22.4 µM (inconclusive)
Cytochrome P450 2D6
  AC50: 0.00562 µM (inconclusive)

## Cc1ccc(CNc2ccc3c(c2)OCO3)cc1
[14]
  EC50: 1.52 µM (active)
Bcl-2-like protein 10
  IC50: > 3.13 µM (inactive)
[15]
  EC50: > 60 µM (not active)

## O=C(/C=C/c1cccc(Br)c1)c1ccc2c(c1)OCO2
[16]
  EC50: 4.03 µM (active)

## FC(F)(F)c1cnc(Oc2ccc(-c3nnco3)cc2)c(Cl)c1
Coagulation factor XII
  IC50: > 50 µM (inactive)

## CCN(c1ccccc1)S(=O)(=O)c1ccc(C(=O)N(CCN(C)C)c2nc3c(F)cc(F)cc3s2)cc1
[16]
  EC50: > 32 µM (inactive)

## CN(C)c1ccc(/C=C/C(=O)c2ccc(O)cc2)cc1[N+](=O)[O-]
HeLa
  AC50: 51.7 µM (active)

## COc1ccc(NC(=O)Cc2ccccc2)cn1
Protein Rev
  IC50: > 25.2 µM (not active)
[17]
  IC50: 15.1 µM (inactive)

## COC(=O)c1ccc(OC(=O)c2ccco2)cc1
[18]
  AC50: 1.99 µM (active)

## CC(=O)O[C@](C)(CCC=C(C)C)C1CC=C(C)CC1 (stereo partly specified)
Cytochrome P450 3A4 [11]
  AC50: 31.6 µM (inconclusive)

## CCOC(=O)c1cc2c(ccn2C)n1CC(=O)N(Cc1ccccc1)c1ccccc1
Protein Rev
  IC50: > 75.4 µM (not active)
[19]
  IC50: > 66 µM (inactive)
[20]
  IC50: > 66 µM (inactive)
[17]
  IC50: > 6.62 µM (active)

## COc1ccccc1N1CCN(C(=O)c2cc(-c3ccco3)nc3ccccc23)CC1
[21]
  IC50: > 56.8 µM (inactive)

## O=C(Cn1sc2ccccc2c1=O)Nc1cccc(F)c1
Hexokinase
  IC50: 4.78 µM (active)

## COc1ccc(NC(=O)Cn2sc3ccccc3c2=O)cc1
Hexokinase
  IC50: 5.63 µM (active)

## O=CNC1(c2ccccc2)CCCCC1
[18]
  AC50: 1.96 µM (active)

## Cc1ccc(/C=N/Nc2cccc3cccnc23)c(O)c1
[12]
  EC50: > 100 µM (not active)

## COc1cc(/C=N/NC(=O)c2cccs2)ccc1O
[22]
  AC50: 1.65 µM (active)
Large T antigen
  IC50: 5.62 µM (active)

## Cc1c(O)cc2c(c1O)C(=O)CC(c1ccc(O)cc1)O2 (stereo unspecified)
[23]
  IC50: 4.74 µM (active)
[24]
  IC50: 3.94 µM (active)
[25]
  IC50: 13.1 µM (active)
[26]
  IC50: > 50 µM (inactive)
